Assay results taken from article PMC6007841 (Journal of medicinal chemistry, 2018).
“And” between values parts separate entries of the source, which are not always exact repeats. Identical values can stand only once. One block for each compound: values may come before it. Bridge positions count the residues as written; N and C are the ends. Ends that are not written are not given here. Peptide text beside a SMILES is read from it.

Key:
hMC4R [1] = biological target: T1, hMC4R (Homo sapiens, UniProt P32245); experiment: Competitive displacement binding, [125I]-NDP-MSH, hMC4R; settings: HEK293 cells
hMC1R [2] = biological target: T2, hMC1R (Homo sapiens, UniProt Q01726); settings: human MC1R; HEK293 cells; cited from earlier work
hMC5R = hMC5R (Homo sapiens, UniProt P33032); experiment: cAMP AlphaScreen agonist assay, hMC5R; settings: for Agonist efficacy (in words): hMC5R, up to 100 μM, HEK293 cells, cAMP
hMC3R = hMC3R (Homo sapiens, UniProt P41968); experiment: cAMP AlphaScreen agonist assay, hMC3R; settings: for Agonist efficacy (in words): hMC3R, up to 100 μM, HEK293 cells, cAMP
hMC1R [3] = biological target: T2, hMC1R; experiment: cAMP AlphaScreen agonist assay, hMC1R; settings: for Agonist efficacy (in words): up to 100 μM, HEK293 cells, cAMP
hMC4R [4] = biological target: T1, hMC4R; experiment: cAMP AlphaScreen agonist assay, hMC4R
mMC1R = mMC1R (Mus musculus, UniProt Q01727); experiment: cAMP AlphaScreen agonist assay, mMC1R
mMC5R = mMC5R (Mus musculus, UniProt P41149); experiment: cAMP AlphaScreen agonist assay, mMC5R
mMC3R = mMC3R (Mus musculus, UniProt P33033); experiment: cAMP AlphaScreen agonist assay, mMC3R; settings: HEK293 cells
mMC4R = mMC4R (Mus musculus, UniProt P56450); experiment: cAMP AlphaScreen agonist assay, mMC4R
[5] = HEK293, read-out: Maximal stimulatory response at 100 μM

Chain of hMC3R (P41968 whole entry): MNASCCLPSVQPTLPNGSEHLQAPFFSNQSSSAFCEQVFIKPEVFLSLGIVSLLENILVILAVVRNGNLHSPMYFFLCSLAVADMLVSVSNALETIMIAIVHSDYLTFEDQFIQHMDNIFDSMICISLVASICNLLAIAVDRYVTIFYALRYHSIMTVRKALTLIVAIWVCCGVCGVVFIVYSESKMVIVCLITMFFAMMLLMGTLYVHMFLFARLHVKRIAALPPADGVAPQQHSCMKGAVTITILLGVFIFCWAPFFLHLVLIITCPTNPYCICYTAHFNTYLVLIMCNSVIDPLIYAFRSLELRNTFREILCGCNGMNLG
T2 sequence (Q01726 whole entry): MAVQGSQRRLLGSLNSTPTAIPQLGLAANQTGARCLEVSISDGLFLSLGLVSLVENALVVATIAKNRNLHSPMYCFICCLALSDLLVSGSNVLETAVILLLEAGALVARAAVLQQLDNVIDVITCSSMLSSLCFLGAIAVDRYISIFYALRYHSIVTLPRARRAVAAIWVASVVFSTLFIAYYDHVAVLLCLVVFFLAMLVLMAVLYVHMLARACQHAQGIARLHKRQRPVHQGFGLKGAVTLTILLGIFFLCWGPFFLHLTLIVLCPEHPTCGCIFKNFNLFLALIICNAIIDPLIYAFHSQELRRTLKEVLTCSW
Chain of mMC1R (Q01727 whole entry): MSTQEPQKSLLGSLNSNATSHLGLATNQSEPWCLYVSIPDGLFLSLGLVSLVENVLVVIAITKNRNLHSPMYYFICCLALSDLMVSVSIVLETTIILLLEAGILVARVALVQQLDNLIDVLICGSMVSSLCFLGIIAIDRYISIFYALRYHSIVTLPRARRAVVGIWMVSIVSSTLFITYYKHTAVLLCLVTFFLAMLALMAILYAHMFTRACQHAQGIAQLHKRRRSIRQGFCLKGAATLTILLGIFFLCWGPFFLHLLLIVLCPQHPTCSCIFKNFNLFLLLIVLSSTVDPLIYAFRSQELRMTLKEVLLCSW
Chain of hMC5R (P33032 whole entry): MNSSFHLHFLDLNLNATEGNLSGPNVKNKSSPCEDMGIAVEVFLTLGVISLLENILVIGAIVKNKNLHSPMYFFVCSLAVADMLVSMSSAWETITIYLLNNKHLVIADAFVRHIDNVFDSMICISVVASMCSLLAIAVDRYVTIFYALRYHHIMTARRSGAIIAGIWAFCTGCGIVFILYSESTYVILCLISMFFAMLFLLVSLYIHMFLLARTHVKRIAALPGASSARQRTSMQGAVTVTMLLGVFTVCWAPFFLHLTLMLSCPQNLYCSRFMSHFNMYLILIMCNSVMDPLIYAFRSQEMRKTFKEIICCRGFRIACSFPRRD
T1 sequence (P32245 whole entry): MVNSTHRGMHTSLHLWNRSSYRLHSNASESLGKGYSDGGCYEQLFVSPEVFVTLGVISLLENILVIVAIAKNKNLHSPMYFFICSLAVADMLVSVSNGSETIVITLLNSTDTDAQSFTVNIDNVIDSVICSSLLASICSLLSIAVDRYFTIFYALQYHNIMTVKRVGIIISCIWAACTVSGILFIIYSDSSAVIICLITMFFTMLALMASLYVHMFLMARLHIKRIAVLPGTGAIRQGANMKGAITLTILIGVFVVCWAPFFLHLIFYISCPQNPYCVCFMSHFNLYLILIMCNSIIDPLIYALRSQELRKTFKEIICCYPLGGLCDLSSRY
Chain of mMC5R (P41149 whole entry): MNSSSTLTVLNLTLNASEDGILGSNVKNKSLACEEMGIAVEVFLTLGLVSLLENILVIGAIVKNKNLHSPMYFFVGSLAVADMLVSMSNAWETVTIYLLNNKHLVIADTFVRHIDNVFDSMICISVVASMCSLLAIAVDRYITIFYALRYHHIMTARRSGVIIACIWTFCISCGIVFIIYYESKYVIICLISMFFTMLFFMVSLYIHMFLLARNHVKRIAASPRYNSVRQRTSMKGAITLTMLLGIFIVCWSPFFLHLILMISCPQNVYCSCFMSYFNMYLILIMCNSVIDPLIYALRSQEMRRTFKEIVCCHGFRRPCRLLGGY
Chain of mMC4R (P56450 whole entry): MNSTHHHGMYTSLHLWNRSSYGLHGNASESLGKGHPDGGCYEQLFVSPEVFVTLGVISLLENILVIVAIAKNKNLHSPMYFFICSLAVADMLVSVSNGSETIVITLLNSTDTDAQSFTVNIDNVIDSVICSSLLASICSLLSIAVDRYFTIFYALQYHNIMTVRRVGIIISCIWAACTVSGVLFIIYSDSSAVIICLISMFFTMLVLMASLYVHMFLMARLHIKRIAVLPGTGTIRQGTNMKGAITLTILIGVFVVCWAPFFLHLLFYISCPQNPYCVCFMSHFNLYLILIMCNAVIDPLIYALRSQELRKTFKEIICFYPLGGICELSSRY
Chain of mMC3R (P33033 whole entry): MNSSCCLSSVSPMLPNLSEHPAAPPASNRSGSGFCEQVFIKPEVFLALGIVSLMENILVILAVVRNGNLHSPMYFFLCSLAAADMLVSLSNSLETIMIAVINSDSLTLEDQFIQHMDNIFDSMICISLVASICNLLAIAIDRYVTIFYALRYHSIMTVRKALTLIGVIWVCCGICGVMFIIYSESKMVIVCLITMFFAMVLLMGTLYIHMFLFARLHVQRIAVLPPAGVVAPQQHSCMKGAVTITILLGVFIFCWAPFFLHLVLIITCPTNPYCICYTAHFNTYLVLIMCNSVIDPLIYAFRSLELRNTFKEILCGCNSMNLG

Agonist efficacy (in words) (hMC5R): no activity
Agonist efficacy (in words) (hMC3R): no activity
Agonist efficacy (in words) (hMC1R [3]; hMC1R): Full agonist efficacy
Agonist efficacy (in words) (hMC4R [4]; hMC4R, up to 100 μM, HEK293 cells, cAMP): Full agonist efficacy
Compound: CC[C@H](C)[C@@H]1NC(=O)[C@H](CCCCN)NC(=O)[C@H]([C@@H](C)O)NC(=O)[C@H](Cc2ccccc2)NC(=O)[C@H]([C@@H](C)CC)NC(=O)[C@@H]2CCCN2C(=O)[C@@H]2CSSC[C@@H](C(=O)N[C@@H](CCCCN)C(=O)O)NC(=O)[C@@H]3CSSC[C@H](NC(=O)[C@H](CC(N)=O)NC(=O)[C@H](Cc4ccc(O)cc4)NC(=O)[C@H](Cc4c[nH]cn4)NC(=O)[C@@H](N)CC(=O)O)C(=O)N[C@@H](C(C)C)C(=O)N[C@@H](CO)C(=O)N[C@@H](CO)C(=O)NCC(=O)NCC(=O)N[C@@H](CCC(N)=O)C(=O)N[C@@H](CSSC[C@H](NC(=O)[C@H]([C@@H](C)O)NC(=O)CNC(=O)[C@H](CCC(N)=O)NC1=O)C(=O)N[C@@H](Cc1ccc(O)cc1)C(=O)N[C@@H](CCCNC(=N)N)C(=O)NCC(=O)N[C@@H](CCCCN)C(=O)N[C@@H](C)C(=O)N[C@@H](CCCCN)C(=O)N3)C(=O)N[C@@H](CC(C)C)C(=O)N[C@@H](Cc1ccc(O)cc1)C(=O)N[C@@H](CO)C(=O)N[C@@H](C)C(=O)N2 [hBD1] (H-DHYNCVSSGGQCLYSACPIFTKIQGTCYRGKAKCCK-OH; disulfide 5-34, 12-27, 17-35; N-terminus and C-terminus assumed)
Displacement of radiolabeled NDP-MSH (in words) (hMC4R [1]): not sufficient displacement of the radiolabel to generate an IC50 values
Binding affinity (hMC1R [2]): 30 nM and 30.0 nM

Compound: GIINTLQKYYCRVRGGRCAVLSCLPKEEQIGKCSTRGRKCCRRKK (cysteines drawn unpaired) [hBD3red]
EC50 (mMC1R): > 100 µM
Agonist efficacy (in words) (mMC1R; mMC1R, up to 100 μM, HEK293 cells, cAMP): unable to stimulate
EC50 (hMC3R): > 100 µM
Agonist efficacy (in words) (hMC3R): unable to stimulate
EC50 (mMC5R): > 100 µM
Agonist efficacy (in words) (mMC5R; mMC5R, up to 100 μM, HEK293 cells, cAMP): unable to stimulate

Compound: FLPKTLRKFFCRIRGGRCAVLNCLGKEEQIGRCSNSGRKCCRKKK (disulfide 11-40, 18-33, 23-41) [mBD3*]
EC50 (hMC3R): > 100 µM

Agonist efficacy (in words) (hMC5R): unable to stimulate
Agonist efficacy (in words) (hMC3R): unable to stimulate
Lower agonist potency compared to the cyclic mBD1 (hMC1R [3]; hMC1R, EC50 ratio mBD1red vs mBD1): 3 fold
Agonist efficacy (in words) (hMC1R [3]; hMC1R): full agonist
Agonist efficacy (in words) (mMC3R; up to 100 μM): did not possess agonist activity
Agonist efficacy (in words) (mMC4R; mMC4R, up to 100 μM, HEK293 cells, cAMP): did not possess agonist activity
Compound: CC(C)C[C@H](NC(=O)[C@H](CS)NC(=O)[C@H](Cc1ccccc1)NC(=O)CNC(=O)CNC(=O)[C@H](Cc1c[nH]cn1)NC(=O)[C@H](CCC(N)=O)NC(=O)[C@H](CC(C)C)NC(=O)[C@H](CS)NC(=O)[C@H](CCCCN)NC(=O)[C@H](Cc1ccc(O)cc1)NC(=O)[C@H](CCC(N)=O)NC(=O)[C@@H](N)CC(=O)O)C(=O)N[C@@H](CCCNC(=N)N)C(=O)N[C@@H](CO)C(=O)N[C@@H](CO)C(=O)N[C@@H](CS)C(=O)N1CCC[C@H]1C(=O)N[C@@H](CO)C(=O)N[C@@H](CC(N)=O)C(=O)N[C@H](C(=O)N[C@@H](CCCCN)C(=O)N[C@@H](CC(C)C)C(=O)N[C@@H](CCC(N)=O)C(=O)NCC(=O)N[C@H](C(=O)N[C@@H](CS)C(=O)N[C@@H](CCCCN)C(=O)N1CCC[C@H]1C(=O)N[C@@H](CC(=O)O)C(=O)N[C@@H](CCCCN)C(=O)N1CCC[C@H]1C(=O)N[C@@H](CC(N)=O)C(=O)N[C@@H](CS)C(=O)N[C@@H](CS)C(=O)N[C@@H](CCCCN)C(=O)N[C@@H](CO)C(=O)O)[C@@H](C)O)[C@@H](C)O [mBD1red] (H-DQYKCLQHGGFCLRSSCPSNTKLQGTCKPDKPNCCKS-OH; N-terminus and C-terminus assumed)

Compound: FLPKTLRKFFCRIRGGRCAVLNCLGKEEQIGRCSNSGRKCCRKKK (cysteines drawn unpaired) [mBD3*red]
Emax at 100 µM (mMC1R; [5]): 40%
Emax at 100 µM (hMC5R; [5]): 40%
EC50 (hMC3R): > 100 µM
Emax at 100 µM (hMC1R [3]; [5]): 45%
Emax at 100 µM (mMC5R; [5]): 35%
Maximal stimulatory response at 100 μM (mMC3R; 100 μM, relative to maximal NDP-MSH signal): 35% @ 100 μM
Emax at 100 µM (hMC4R [4]; [5]): 50%
Emax at 100 µM (mMC4R; [5]): 40%
